Experimental data published in PMC5218480 (PLoS ONE, 2017).

System: MV-4-11 cells
Test: Gene expression microarray analysis (Affymetrix PrimeView) and GSEA
Type: cell-based, human
Design: RFU PODN (11730768_x_at) / Fold change /veh PODN (11730768_x_at) / RFU LINC00158 (11744669_a_at) / Fold change /veh LINC00158 (11744669_a_at) / RFU DUSP10 (11751237_a_at) / Fold change /veh DUSP10 (11751237_a_at) / RFU ID3 (11757404_x_at) / Fold change /veh ID3 (11757404_x_at) / RFU PLEKHG5 (11737974_s_at) / Fold change /veh PLEKHG5 (11737974_s_at) / RFU LRRC4B (11730491_at) / Fold change /veh LRRC4B (11730491_at) / RFU GIMAP4 (11747438_a_at) / Fold change /veh GIMAP4 (11747438_a_at) / RFU KRT8 (11758183_x_at) / Fold change /veh KRT8 (11758183_x_at) / RFU CNN1 (11734310_a_at) / Fold change /veh CNN1 (11734310_a_at) / RFU VPS37D (11726825_at) / Fold change /veh VPS37D (11726825_at) / RFU C10orf10 (11716522_x_at) / Fold change /veh C10orf10 (11716522_x_at) / RFU KIR2DL2 /// KIR2DL4 /// KIR2DL5A /// KIR2DL5B /// KIR2DS1 /// KIR2DS2 /// KIR2DS3 /// KIR2DS4 /// KIR3DL3 /// KIR3DL3 /// KIR3DS1 (11738374_at) / Fold change /veh KIR2DL2 /// KIR2DL4 /// KIR2DL5A /// KIR2DL5B /// KIR2DS1 /// KIR2DS2 /// KIR2DS3 /// KIR2DS4 /// KIR3DL3 /// KIR3DL3 /// KIR3DS1 (11738374_at) / RFU C1QL1 (11718748_at) / Fold change /veh C1QL1 (11718748_at) / RFU TMPRSS4 (11747572_a_at) / Fold change /veh TMPRSS4 (11747572_a_at) / RFU HAMP (11756126_x_at) / Fold change /veh HAMP (11756126_x_at) / RFU RNFT2 (11725882_a_at) / Fold change /veh RNFT2 (11725882_a_at) / RFU NR4A2 (11747474_a_at) / Fold change /veh NR4A2 (11747474_a_at) / RFU ABCC12 (11746883_a_at) / Fold change /veh ABCC12 (11746883_a_at) / RFU TMEM136 (11760407_x_at) / Fold change /veh TMEM136 (11760407_x_at) / RFU CLDN22 /// WWC2 (11732394_at) / Fold change /veh CLDN22 /// WWC2 (11732394_at) / RFU HLA-DPB1 (11760878_x_at) / Fold change /veh HLA-DPB1 (11760878_x_at) / RFU SPINT1 (11716480_a_at) / Fold change /veh SPINT1 (11716480_a_at) / RFU GAP43 (11754022_s_at) / Fold change /veh GAP43 (11754022_s_at) / RFU A4GNT (11735810_at) / Fold change /veh A4GNT (11735810_at) / RFU PRB3 (11715151_x_at) / Fold change /veh PRB3 (11715151_x_at) / RFU TUBB4B (11761932_at) / Fold change /veh TUBB4B (11761932_at) / RFU CAPN14 (11732068_a_at) / Fold change /veh CAPN14 (11732068_a_at) / RFU TMCC2 (11721928_a_at) / Fold change /veh TMCC2 (11721928_a_at) / RFU IRGQ (11745062_a_at) / Fold change /veh IRGQ (11745062_a_at) / RFU FAM174B (11720279_a_at) / Fold change /veh FAM174B (11720279_a_at) / RFU TMPRSS4 (11748680_a_at) / Fold change /veh TMPRSS4 (11748680_a_at) / RFU FAM212B (11763350_a_at) / Fold change /veh FAM212B (11763350_a_at) / RFU PLEKHG5 (11743358_a_at) / Fold change /veh PLEKHG5 (11743358_a_at) / RFU ZSCAN30 (11745921_a_at) / Fold change /veh ZSCAN30 (11745921_a_at) / RFU CMKLR1 (11741424_a_at) / Fold change /veh CMKLR1 (11741424_a_at) / RFU LOC101060620 /// MAPK8IP1 (11723275_at) / Fold change /veh LOC101060620 /// MAPK8IP1 (11723275_at) / RFU SPTSSB (11747773_x_at) / Fold change /veh SPTSSB (11747773_x_at) / RFU PRSS12 (11739890_at) / Fold change /veh PRSS12 (11739890_at) / RFU BIN1 (11741810_x_at) / Fold change /veh BIN1 (11741810_x_at) / RFU WNT11 (11732464_a_at) / Fold change /veh WNT11 (11732464_a_at) / RFU C10orf10 (11716521_a_at) / Fold change /veh C10orf10 (11716521_a_at) / RFU C5orf56 (11738089_at) / Fold change /veh C5orf56 (11738089_at) / RFU CYB561 (11721691_x_at) / Fold change /veh CYB561 (11721691_x_at) / RFU ANKRD19P (11752326_a_at) / Fold change /veh ANKRD19P (11752326_a_at) / RFU OR2T12 /// OR2T33 /// OR2T8 (11738714_s_at) / Fold change /veh OR2T12 /// OR2T33 /// OR2T8 (11738714_s_at) / RFU VCAN (11748164_a_at) / Fold change /veh VCAN (11748164_a_at) / RFU JSRP1 (11732532_at) / Fold change /veh JSRP1 (11732532_at) / RFU KRTAP10-11 (11738290_x_at) / Fold change /veh KRTAP10-11 (11738290_x_at) / RFU MYO3A (11730013_a_at) / Fold change /veh MYO3A (11730013_a_at) / RFU EBF3 (11725865_a_at) / Fold change /veh EBF3 (11725865_a_at) / RFU CAMK2N1 (11719241_x_at) / Fold change /veh CAMK2N1 (11719241_x_at) / RFU C5orf56 (11738088_a_at) / Fold change /veh C5orf56 (11738088_a_at) / RFU OLFML3 (11715873_a_at) / Fold change /veh OLFML3 (11715873_a_at) / RFU LOC100653217 /// NTM (11731650_a_at) / Fold change /veh LOC100653217 /// NTM (11731650_a_at) / RFU MAPK11 (11762145_a_at) / Fold change /veh MAPK11 (11762145_a_at) / RFU FIZ1 (11724087_x_at) / Fold change /veh FIZ1 (11724087_x_at) / RFU OASL (11726364_x_at) / Fold change /veh OASL (11726364_x_at) / RFU SOX15 (11748057_x_at) / Fold change /veh SOX15 (11748057_x_at) / RFU CD79A (11719716_a_at) / Fold change /veh CD79A (11719716_a_at) / RFU HIST1H1D (11736915_at) / Fold change /veh HIST1H1D (11736915_at) / RFU CASKIN2 (11723855_a_at) / Fold change /veh CASKIN2 (11723855_a_at) / RFU LOC730098 (11760151_x_at) / Fold change /veh LOC730098 (11760151_x_at) / RFU OR4N2 (11742367_at) / Fold change /veh OR4N2 (11742367_at) / RFU PRRT2 (11749266_a_at) / Fold change /veh PRRT2 (11749266_a_at) / RFU SNX32 (11753110_a_at) / Fold change /veh SNX32 (11753110_a_at) / RFU CDHR5 (11726645_a_at) / Fold change /veh CDHR5 (11726645_a_at) / RFU RCAN1 (11760418_a_at) / Fold change /veh RCAN1 (11760418_a_at) / RFU FAM167A (11723789_a_at) / Fold change /veh FAM167A (11723789_a_at) / RFU FAM26E (11764081_at) / Fold change /veh FAM26E (11764081_at) / RFU ISYNA1 (11749810_s_at) / Fold change /veh ISYNA1 (11749810_s_at) / RFU ACY1 (11761880_at) / Fold change /veh ACY1 (11761880_at) / RFU 11764098_at / Fold change /veh 11764098_at / RFU SAMD14 (11745864_x_at) / Fold change /veh SAMD14 (11745864_x_at) / RFU NPB (11741838_a_at) / Fold change /veh NPB (11741838_a_at) / RFU TMPRSS6 (11731388_a_at) / Fold change /veh TMPRSS6 (11731388_a_at) / RFU KRTAP10-2 (11738614_at) / Fold change /veh KRTAP10-2 (11738614_at) / RFU ARHGAP8 /// PRR5-ARHGAP8 (11727945_x_at) / Fold change /veh ARHGAP8 /// PRR5-ARHGAP8 (11727945_x_at) / RFU KRTAP5-7 /// NADSYN1 (11734609_at) / Fold change /veh KRTAP5-7 /// NADSYN1 (11734609_at) / RFU RASL12 (11751679_a_at) / Fold change /veh RASL12 (11751679_a_at) / RFU CDKN2B (11736163_a_at) / Fold change /veh CDKN2B (11736163_a_at) / RFU PRF1 (11729649_at) / Fold change /veh PRF1 (11729649_at) / RFU, ZNF638 /// ZNF638-IT1 / Fold change vs veh, ZNF638 /// ZNF638-IT1 / RFU, PANK3 / Fold change vs veh, PANK3 / RFU, SH3YL1 / Fold change vs veh, SH3YL1 / RFU, ZEB2 / Fold change vs veh, ZEB2 / RFU, NRIP1 / Fold change vs veh, NRIP1 / RFU, PTTG1IP / Fold change vs veh, PTTG1IP / RFU, CAPN2 / Fold change vs veh, CAPN2 / RFU, MED14 / Fold change vs veh, MED14 / RFU, SNORA58 / Fold change vs veh, SNORA58 / RFU, C1orf63 / Fold change vs veh, C1orf63 / RFU, LRRFIP1 / Fold change vs veh, LRRFIP1 / RFU, NDUFAF7 / Fold change vs veh, NDUFAF7 / RFU, SLC12A2 / Fold change vs veh, SLC12A2 / RFU, IBTK / Fold change vs veh, IBTK / RFU, ESF1 / Fold change vs veh, ESF1 / Fold change vs veh, TMEM50B / RFU, TAOK1 / Fold change vs veh, TAOK1 / RFU, ACBD3 / Fold change vs veh, ACBD3 / RFU, TMA16 / Fold change vs veh, TMA16 / RFU, RWDD3 / Fold change vs veh, RWDD3 / RFU, BCAT1 / Fold change vs veh, BCAT1 / RFU, EDEM3 / Fold change vs veh, EDEM3 / RFU, TMEM33 / Fold change vs veh, TMEM33 / RFU, WDR75 / Fold change vs veh, WDR75 / RFU, AHCTF1 / Fold change vs veh, AHCTF1 / RFU, TFRC / Fold change vs veh, TFRC / RFU, ZDHHC17 / Fold change vs veh, ZDHHC17 / RFU, NOM1 / Fold change vs veh, NOM1 / RFU, ARL8B / Fold change vs veh, ARL8B / RFU, ZBTB11 / Fold change vs veh, ZBTB11 / RFU, TAMM41 / Fold change vs veh, TAMM41 / RFU, KIAA1704 /// LOC100996395 / Fold change vs veh, KIAA1704 /// LOC100996395 / RFU, ING1 / Fold change vs veh, ING1 / RFU, TRMT61B / Fold change vs veh, TRMT61B / RFU, FUBP3 / Fold change vs veh, FUBP3 / RFU, TP53 / Fold change vs veh, TP53 / RFU, TNKS2 / Fold change vs veh, TNKS2 / RFU, ZFP14 / Fold change vs veh, ZFP14 / RFU, ACTR2 / Fold change vs veh, ACTR2 / RFU, PPP3R1 / Fold change vs veh, PPP3R1 / RFU, PIK3R1 / Fold change vs veh, PIK3R1 / RFU, HNRNPA1 / Fold change vs veh, HNRNPA1 / RFU, RNF170 / Fold change vs veh, RNF170 / RFU, ZNF28 / Fold change vs veh, ZNF28 / RFU, RNGTT / Fold change vs veh, RNGTT / RFU, OGT / Fold change vs veh, OGT / RFU, BRD1 / Fold change vs veh, BRD1 / RFU, MARS / Fold change vs veh, MARS / RFU, ZNF655 / Fold change vs veh, ZNF655 / RFU, FAHD1 / Fold change vs veh, FAHD1 / RFU, BDP1 / Fold change vs veh, BDP1 / RFU, LRRCC1 / Fold change vs veh, LRRCC1 / RFU, ARID1A / Fold change vs veh, ARID1A / RFU, ZNF146 / Fold change vs veh, ZNF146 / RFU, ZNF330 / Fold change vs veh, ZNF330 / RFU, GPN3 / Fold change vs veh, GPN3 / RFU, C9orf123 / Fold change vs veh, C9orf123 / RFU, N4BP2L2 / Fold change vs veh, N4BP2L2 / RFU, ARFIP1 / Fold change vs veh, ARFIP1 / RFU, FAM179B / Fold change vs veh, FAM179B / RFU, BCL10 / Fold change vs veh, BCL10 / RFU, UHRF1BP1L / Fold change vs veh, UHRF1BP1L / RFU, BET1 / Fold change vs veh, BET1 / RFU, CNOT2 / Fold change vs veh, CNOT2 / RFU, ZNF268 / Fold change vs veh, ZNF268 / Fold change vs veh, ZNF507 / RFU, DGCR2 / Fold change vs veh, DGCR2 / RFU, WDSUB1 / Fold change vs veh, WDSUB1 / Fold change vs veh, HSP90B1 /// MIR3652 / RFU, ADSS / Fold change vs veh, ADSS / RFU, GK / Fold change vs veh, GK / RFU, ZNF148 / Fold change vs veh, ZNF148 / RFU, TAF9 / Fold change vs veh, TAF9 / RFU, SLC1A5 / Fold change vs veh, SLC1A5 / RFU, SLMO2 / Fold change vs veh, SLMO2 / RFU, ABCC4 / Fold change vs veh, ABCC4 / RFU, LOC101060439 /// RAP1B / Fold change vs veh, LOC101060439 /// RAP1B / RFU, RFX7 / Fold change vs veh, RFX7 / RFU, GTPBP10 / Fold change vs veh, GTPBP10 / RFU, CNEP1R1 / Fold change vs veh, CNEP1R1 / RFU, BIVM-ERCC5 /// ERCC5 / Fold change vs veh, BIVM-ERCC5 /// ERCC5 / RFU, ILF3 / Fold change vs veh, ILF3 / RFU 11762660_at / Fold change /veh 11762660_at / RFU VCAN (11757783_s_at) / Fold change /veh VCAN (11757783_s_at) / RFU DDX43 (11728927_at) / Fold change /veh DDX43 (11728927_at) / RFU KRT8 (11758188_x_at) / Fold change /veh KRT8 (11758188_x_at) / RFU NKD1 (11759106_at) / Fold change /veh NKD1 (11759106_at) / RFU SRD5A1 (11742802_a_at) / Fold change /veh SRD5A1 (11742802_a_at) / RFU TPSAB1 /// TPSB2 (11721975_s_at) / Fold change /veh TPSAB1 /// TPSB2 (11721975_s_at) / RFU GSTM3 (11746129_a_at) / Fold change /veh GSTM3 (11746129_a_at) / RFU IL23R (11737362_x_at) / Fold change /veh IL23R (11737362_x_at) / RFU TMEM51 (11727254_a_at) / Fold change /veh TMEM51 (11727254_a_at) / RFU PIWIL2 (11732686_x_at) / Fold change /veh PIWIL2 (11732686_x_at) / RFU ORM1 (11744905_x_at) / Fold change /veh ORM1 (11744905_x_at) / RFU CCDC152 (11743942_at) / Fold change /veh CCDC152 (11743942_at) / RFU ECM1 (11717891_a_at) / Fold change /veh ECM1 (11717891_a_at) / RFU IL23R (11748794_a_at) / Fold change /veh IL23R (11748794_a_at) / RFU TNFAIP8L3 (11732012_x_at) / Fold change /veh TNFAIP8L3 (11732012_x_at) / RFU MBOAT4 (11741988_at) / Fold change /veh MBOAT4 (11741988_at) / RFU 11764193_at / Fold change /veh 11764193_at / RFU TMEM53 (11763286_at) / Fold change /veh TMEM53 (11763286_at) / RFU MAGEB2 (11727129_at) / Fold change /veh MAGEB2 (11727129_at) / RFU TMEM200A (11744735_a_at) / Fold change /veh TMEM200A (11744735_a_at) / RFU CCDC152 (11751479_a_at) / Fold change /veh CCDC152 (11751479_a_at) / RFU FAM211A (11726209_a_at) / Fold change /veh FAM211A (11726209_a_at) / RFU RGS16 (11746705_a_at) / Fold change /veh RGS16 (11746705_a_at) / RFU VCAN (11755009_s_at) / Fold change /veh VCAN (11755009_s_at) / RFU RHOB (11743442_s_at) / Fold change /veh RHOB (11743442_s_at) / RFU RGS16 (11720943_a_at) / Fold change /veh RGS16 (11720943_a_at) / RFU RGS16 (11720944_at) / Fold change /veh RGS16 (11720944_at) / RFU, VPS4B / Fold change vs veh, VPS4B / RFU, CREB1 / Fold change vs veh, CREB1 / RFU, DNAJC13 / Fold change vs veh, DNAJC13 / RFU, GNAQ / Fold change vs veh, GNAQ / RFU, CDK5R1 / Fold change vs veh, CDK5R1 / RFU, ZRANB3 / Fold change vs veh, ZRANB3 / RFU, CUL4A / Fold change vs veh, CUL4A / RFU, CCNY / Fold change vs veh, CCNY / RFU, UFL1 / Fold change vs veh, UFL1 / RFU, COG3 / Fold change vs veh, COG3 / RFU, DIAPH2 / Fold change vs veh, DIAPH2 / RFU, SKA2 / Fold change vs veh, SKA2 / RFU, AFF3 / Fold change vs veh, AFF3 / RFU, LMF1 / Fold change vs veh, LMF1 / RFU, IPO11 / Fold change vs veh, IPO11 / RFU, DFFB / Fold change vs veh, DFFB / RFU, FOXP1 / Fold change vs veh, FOXP1 / RFU, CARD8 / Fold change vs veh, CARD8 / RFU, STRN3 / Fold change vs veh, STRN3 / RFU, ADK / Fold change vs veh, ADK / RFU, RASSF2 / Fold change vs veh, RASSF2 / RFU, WIPF1 / Fold change vs veh, WIPF1 / RFU, LARP1B / Fold change vs veh, LARP1B / RFU, RASA1 / Fold change vs veh, RASA1 / RFU, RB1 / Fold change vs veh, RB1 / RFU, PPFIA1 / Fold change vs veh, PPFIA1 / RFU, MAT2A / Fold change vs veh, MAT2A / RFU, CCT5 / Fold change vs veh, CCT5 / RFU, WDR92 / Fold change vs veh, WDR92 / RFU, CUX1 / Fold change vs veh, CUX1 / RFU, TTC7A / Fold change vs veh, TTC7A / RFU, TMEM135 / Fold change vs veh, TMEM135 / RFU, DEPTOR / Fold change vs veh, DEPTOR / RFU, CPM / Fold change vs veh, CPM / RFU, DNAJB6 / Fold change vs veh, DNAJB6 / RFU, CACNA2D3 / Fold change vs veh, CACNA2D3 / RFU, DTX4 / Fold change vs veh, DTX4 / RFU, TFCP2 / Fold change vs veh, TFCP2 / RFU, GMCL1 /// GMCL1P1 / Fold change vs veh, GMCL1 /// GMCL1P1 / RFU, AEBP2 / Fold change vs veh, AEBP2 / RFU, SNHG1 /// SNORD22 /// SNORD25 /// SNORD26 /// SNORD27 /// SNORD28 /// SNORD29 /// SNORD31 / Fold change vs veh, SNHG1 /// SNORD22 /// SNORD25 /// SNORD26 /// SNORD27 /// SNORD28 /// SNORD29 /// SNORD31 / Fold change (Aza/veh), C12orf56 (ProbeSet 11735607_a_at) / Fold change (ACY-1035/veh), C12orf56 (ProbeSet 11735607_a_at) / Fold change (Aza/veh), FGFR1OP (ProbeSet 11751329_s_at) / Fold change (ACY-1035/veh), FGFR1OP (ProbeSet 11751329_s_at) / Fold change (Aza/veh), VPS36 (ProbeSet 11739960_a_at) / Fold change (ACY-1035/veh), VPS36 (ProbeSet 11739960_a_at) / RFU SYPL1 (11715823_x_at) / Fold change /veh SYPL1 (11715823_x_at) / RFU IGFBP7 (11715501_s_at) / Fold change /veh IGFBP7 (11715501_s_at) / RFU REEP3 (11722064_at) / Fold change /veh REEP3 (11722064_at) / RFU IGLL1 (11728026_x_at) / Fold change /veh IGLL1 (11728026_x_at): dose or concentration left out as unconfirmed
Settings: MV-4-11 cells, 48 hours

Nc1ncn([C@@H]2O[C@H](CO)[C@@H](O)[C@H]2O)c(=O)n1 [azacitidine]
Fold change /veh NKD1 (11759106_at): 1.33
